Data published in PubChem BioAssay AID1963837 (Molecular Pharmacology Branch, DTP, NCI, 2024).

The compounds below were run on 843126-344-R-J1-PDC complex spheroid viability (assay: Anticancer human tumor 843126-344-R-J1-PDC patient-derived melanoma cell line growth inhibition [POLQ]). Conditions: second compound 10 µM; first compound 0.0316 µM; hits give low values.
How it was run: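 Complex spheroid viability model combining PDC tumour cells with endothelial (HUVEC) and MSC stromal cells. Novobiocin, ART-558 or RP6685 were tested singly and in combination with standard and investigational anticancer drugs. Each was titrated in half-log steps from near clinical Cmax, or from 10 microM where Cmax was unknown.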
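Note: spheroids exposed to drugs for seven days before readout.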

Point of comparison: `O=C(Nc1ccc(O)c(NS(=O)(=O)c2ccc(F)cc2)c1)c1ccc(-c2ccccc2)cc1` + Cc1cccc(N(C)C(=O)C2C(O)CCN2c2nc(C)cc(C(F)(F)F)c2C#N)c1, viability, T/C 92.2%. Against it:
- COc1ccc([C@@H](O)c2cc(-c3ncnc4cc(N5CCOCC5)ccc34)c(F)cc2Cl)nn1 + Cc1cccc(N(C)C(=O)C2C(O)CCN2c2nc(C)cc(C(F)(F)F)c2C#N)c1 — lower, 74.1%

Same assay, conditions: second compound 10 µM; first compound 0.1 µM; hits give low values

Point of comparison: `CCc1cc2c(N3CCc4c(cc(Cn5ccnc5)cc4-c4cn(C)nc4C(F)(F)F)C3=O)cc(C)nc2c(OC)n1` + Cc1cccc(N(C)C(=O)C2C(O)CCN2c2nc(C)cc(C(F)(F)F)c2C#N)c1, viability, T/C 79.9%. Against it:
- C#Cc1c(F)ccc2cc(O)cc(-c3ncc4c(N5CC6CCC(C5)N6)nc(OCC56CCCN5CC(F)C6)nc4c3F)c12 (configuration not stated) + Cc1cccc(N(C)C(=O)C2C(O)CCN2c2nc(C)cc(C(F)(F)F)c2C#N)c1 — higher, 80.1%
- C=CC(=O)N1CCN(c2nc(=O)n(-c3c(C)ccnc3C(C)C)c3nc(-c4c(O)cccc4F)c(F)cc23)C(C)C1 (configuration not stated) + Cc1cccc(N(C)C(=O)C2C(O)CCN2c2nc(C)cc(C(F)(F)F)c2C#N)c1 — higher, 81%
- CC(C)n1c(=O)n(C)c2cnc3cc(F)c(-c4ccc(OCCCN5CCCCC5)nc4)cc3c21 + Cc1cccc(N(C)C(=O)C2C(O)CCN2c2nc(C)cc(C(F)(F)F)c2C#N)c1 — higher, 90.2%
- CCc1cc2c(N3CCc4c(cc(Cn5ccnc5)cc4-c4cn(C)nc4C(F)(F)F)C3=O)ccnc2c(OC)n1 + Cc1cccc(N(C)C(=O)C2C(O)CCN2c2nc(C)cc(C(F)(F)F)c2C#N)c1 — higher, 92.2%
- COc1cc2cc(C(=O)CCC(=O)O)sc2cc1OC + Cc1cccc(N(C)C(=O)C2C(O)CCN2c2nc(C)cc(C(F)(F)F)c2C#N)c1 — higher, 90.6%
- COc1ccc([C@@H](O)c2cc(-c3ncnc4cc(N5CCOCC5)ccc34)c(F)cc2Cl)nn1 + Cc1cccc(N(C)C(=O)C2C(O)CCN2c2nc(C)cc(C(F)(F)F)c2C#N)c1 — higher, 83.5%
- O=C(Nc1ccc(O)c(NS(=O)(=O)c2ccc(F)cc2)c1)c1ccc(-c2ccccc2)cc1 + Cc1cccc(N(C)C(=O)C2C(O)CCN2c2nc(C)cc(C(F)(F)F)c2C#N)c1 — higher, 87.4%

Same assay, conditions: second compound 10 µM; first compound 0.316 µM; hits give low values

Point of comparison: `O=C(Nc1ccc(O)c(NS(=O)(=O)c2ccc(F)cc2)c1)c1ccc(-c2ccccc2)cc1` + Cc1cccc(N(C)C(=O)C2C(O)CCN2c2nc(C)cc(C(F)(F)F)c2C#N)c1, viability, T/C 89.2%. Against it:
- C#Cc1c(F)ccc2cc(O)cc(-c3ncc4c(N5CC6CCC(C5)N6)nc(OCC56CCCN5CC(F)C6)nc4c3F)c12 (configuration not stated) + Cc1cccc(N(C)C(=O)C2C(O)CCN2c2nc(C)cc(C(F)(F)F)c2C#N)c1 — higher, 95.5%
- C=CC(=O)N1CCN(c2nc(=O)n(-c3c(C)ccnc3C(C)C)c3nc(-c4c(O)cccc4F)c(F)cc23)C(C)C1 (configuration not stated) + Cc1cccc(N(C)C(=O)C2C(O)CCN2c2nc(C)cc(C(F)(F)F)c2C#N)c1 — the same, 89.2%
- CC(C)n1c(=O)n(C)c2cnc3cc(F)c(-c4ccc(OCCCN5CCCCC5)nc4)cc3c21 + Cc1cccc(N(C)C(=O)C2C(O)CCN2c2nc(C)cc(C(F)(F)F)c2C#N)c1 — lower, 89.1%
- CCc1cc2c(N3CCc4c(cc(Cn5ccnc5)cc4-c4cn(C)nc4C(F)(F)F)C3=O)cc(C)nc2c(OC)n1 + Cc1cccc(N(C)C(=O)C2C(O)CCN2c2nc(C)cc(C(F)(F)F)c2C#N)c1 — lower, 80%
- CCc1cc2c(N3CCc4c(cc(Cn5ccnc5)cc4-c4cn(C)nc4C(F)(F)F)C3=O)ccnc2c(OC)n1 + Cc1cccc(N(C)C(=O)C2C(O)CCN2c2nc(C)cc(C(F)(F)F)c2C#N)c1 — lower, 75.5%
- COc1cc2cc(C(=O)CCC(=O)O)sc2cc1OC + Cc1cccc(N(C)C(=O)C2C(O)CCN2c2nc(C)cc(C(F)(F)F)c2C#N)c1 — higher, 92.1%
- COc1ccc([C@@H](O)c2cc(-c3ncnc4cc(N5CCOCC5)ccc34)c(F)cc2Cl)nn1 + Cc1cccc(N(C)C(=O)C2C(O)CCN2c2nc(C)cc(C(F)(F)F)c2C#N)c1 — lower, 70.2%

Same assay, conditions: second compound 10 µM; first compound 1 µM; hits give low values

Point of comparison: `C#Cc1c(F)ccc2cc(O)cc(-c3ncc4c(N5CC6CCC(C5)N6)nc(OCC56CCCN5CC(F)C6)nc4c3F)c12` (configuration not stated) + Cc1cccc(N(C)C(=O)C2C(O)CCN2c2nc(C)cc(C(F)(F)F)c2C#N)c1, viability, T/C 85.9%. Against it:
- C=CC(=O)N1CCN(c2nc(=O)n(-c3c(C)ccnc3C(C)C)c3nc(-c4c(O)cccc4F)c(F)cc23)C(C)C1 (configuration not stated) + Cc1cccc(N(C)C(=O)C2C(O)CCN2c2nc(C)cc(C(F)(F)F)c2C#N)c1 — higher, 89.5%
- CC(C)n1c(=O)n(C)c2cnc3cc(F)c(-c4ccc(OCCCN5CCCCC5)nc4)cc3c21 + Cc1cccc(N(C)C(=O)C2C(O)CCN2c2nc(C)cc(C(F)(F)F)c2C#N)c1 — lower, 77.9%
- CCc1cc2c(N3CCc4c(cc(Cn5ccnc5)cc4-c4cn(C)nc4C(F)(F)F)C3=O)cc(C)nc2c(OC)n1 + Cc1cccc(N(C)C(=O)C2C(O)CCN2c2nc(C)cc(C(F)(F)F)c2C#N)c1 — lower, 74.2%
- CCc1cc2c(N3CCc4c(cc(Cn5ccnc5)cc4-c4cn(C)nc4C(F)(F)F)C3=O)ccnc2c(OC)n1 + Cc1cccc(N(C)C(=O)C2C(O)CCN2c2nc(C)cc(C(F)(F)F)c2C#N)c1 — lower, 68.8%
- COc1cc2cc(C(=O)CCC(=O)O)sc2cc1OC + Cc1cccc(N(C)C(=O)C2C(O)CCN2c2nc(C)cc(C(F)(F)F)c2C#N)c1 — higher, 89.7%
- COc1ccc([C@@H](O)c2cc(-c3ncnc4cc(N5CCOCC5)ccc34)c(F)cc2Cl)nn1 + Cc1cccc(N(C)C(=O)C2C(O)CCN2c2nc(C)cc(C(F)(F)F)c2C#N)c1 — lower, 66%
- O=C(Nc1ccc(O)c(NS(=O)(=O)c2ccc(F)cc2)c1)c1ccc(-c2ccccc2)cc1 + Cc1cccc(N(C)C(=O)C2C(O)CCN2c2nc(C)cc(C(F)(F)F)c2C#N)c1 — lower, 85.5%

Same assay, conditions: second compound 10 µM; first compound 3.16 µM; hits give low values

Point of comparison: `CC(C)n1c(=O)n(C)c2cnc3cc(F)c(-c4ccc(OCCCN5CCCCC5)nc4)cc3c21` + Cc1cccc(N(C)C(=O)C2C(O)CCN2c2nc(C)cc(C(F)(F)F)c2C#N)c1, viability, T/C 81.9%. Against it:
- C#Cc1c(F)ccc2cc(O)cc(-c3ncc4c(N5CC6CCC(C5)N6)nc(OCC56CCCN5CC(F)C6)nc4c3F)c12 (configuration not stated) + Cc1cccc(N(C)C(=O)C2C(O)CCN2c2nc(C)cc(C(F)(F)F)c2C#N)c1 — higher, 91.6%
- C=CC(=O)N1CCN(c2nc(=O)n(-c3c(C)ccnc3C(C)C)c3nc(-c4c(O)cccc4F)c(F)cc23)C(C)C1 (configuration not stated) + Cc1cccc(N(C)C(=O)C2C(O)CCN2c2nc(C)cc(C(F)(F)F)c2C#N)c1 — higher, 83.5%
- CCc1cc2c(N3CCc4c(cc(Cn5ccnc5)cc4-c4cn(C)nc4C(F)(F)F)C3=O)cc(C)nc2c(OC)n1 + Cc1cccc(N(C)C(=O)C2C(O)CCN2c2nc(C)cc(C(F)(F)F)c2C#N)c1 — higher, 82.5%
- CCc1cc2c(N3CCc4c(cc(Cn5ccnc5)cc4-c4cn(C)nc4C(F)(F)F)C3=O)ccnc2c(OC)n1 + Cc1cccc(N(C)C(=O)C2C(O)CCN2c2nc(C)cc(C(F)(F)F)c2C#N)c1 — lower, 70.7%
- COc1cc2cc(C(=O)CCC(=O)O)sc2cc1OC + Cc1cccc(N(C)C(=O)C2C(O)CCN2c2nc(C)cc(C(F)(F)F)c2C#N)c1 — higher, 90.9%
- COc1ccc([C@@H](O)c2cc(-c3ncnc4cc(N5CCOCC5)ccc34)c(F)cc2Cl)nn1 + Cc1cccc(N(C)C(=O)C2C(O)CCN2c2nc(C)cc(C(F)(F)F)c2C#N)c1 — lower, 77.4%
- O=C(Nc1ccc(O)c(NS(=O)(=O)c2ccc(F)cc2)c1)c1ccc(-c2ccccc2)cc1 + Cc1cccc(N(C)C(=O)C2C(O)CCN2c2nc(C)cc(C(F)(F)F)c2C#N)c1 — higher, 93.5%

Same assay, conditions: second compound 10 µM; first compound 10 µM; hits give low values

Point of comparison: `C=CC(=O)N1CCN(c2nc(=O)n(-c3c(C)ccnc3C(C)C)c3nc(-c4c(O)cccc4F)c(F)cc23)C(C)C1` (configuration not stated) + Cc1cccc(N(C)C(=O)C2C(O)CCN2c2nc(C)cc(C(F)(F)F)c2C#N)c1, viability, T/C 70.1%. Against it:
- C#Cc1c(F)ccc2cc(O)cc(-c3ncc4c(N5CC6CCC(C5)N6)nc(OCC56CCCN5CC(F)C6)nc4c3F)c12 (configuration not stated) + Cc1cccc(N(C)C(=O)C2C(O)CCN2c2nc(C)cc(C(F)(F)F)c2C#N)c1 — lower, 61.8%
- CC(C)n1c(=O)n(C)c2cnc3cc(F)c(-c4ccc(OCCCN5CCCCC5)nc4)cc3c21 + Cc1cccc(N(C)C(=O)C2C(O)CCN2c2nc(C)cc(C(F)(F)F)c2C#N)c1 — lower, 61.2%
- CCc1cc2c(N3CCc4c(cc(Cn5ccnc5)cc4-c4cn(C)nc4C(F)(F)F)C3=O)cc(C)nc2c(OC)n1 + Cc1cccc(N(C)C(=O)C2C(O)CCN2c2nc(C)cc(C(F)(F)F)c2C#N)c1 — lower, 54.4%
- CCc1cc2c(N3CCc4c(cc(Cn5ccnc5)cc4-c4cn(C)nc4C(F)(F)F)C3=O)ccnc2c(OC)n1 + Cc1cccc(N(C)C(=O)C2C(O)CCN2c2nc(C)cc(C(F)(F)F)c2C#N)c1 — lower, 64.4%
- COc1cc2cc(C(=O)CCC(=O)O)sc2cc1OC + Cc1cccc(N(C)C(=O)C2C(O)CCN2c2nc(C)cc(C(F)(F)F)c2C#N)c1 — higher, 86.1%
- COc1ccc([C@@H](O)c2cc(-c3ncnc4cc(N5CCOCC5)ccc34)c(F)cc2Cl)nn1 + Cc1cccc(N(C)C(=O)C2C(O)CCN2c2nc(C)cc(C(F)(F)F)c2C#N)c1 — lower, 64.1%
- O=C(Nc1ccc(O)c(NS(=O)(=O)c2ccc(F)cc2)c1)c1ccc(-c2ccccc2)cc1 + Cc1cccc(N(C)C(=O)C2C(O)CCN2c2nc(C)cc(C(F)(F)F)c2C#N)c1 — lower, 62.5%
